For 44 compounds, NOAEL results are on record in EPA's ToxValDB 9.5 (doi:10.2903/j.efsa.2012.2799).

For orientation: NOAEL means the highest tested level that showed no adverse finding.

Structures are written as SMILES.

The subject of data set [1] is Rattus norvegicus.
The test system of data set [2] is Mus musculus. Conditions: short-term; duration: 14 days.
The test system of data set [3] is Oryctolagus sp.
The subject of data set [4] is Canidae. Conditions: Dog Other.

For `CC(C)N1C(=O)c2ccccc2NS1(=O)=O` [Bentazone], the NOAEL in data set [1] (subchronic, duration: 90 days) turned out to be 25 mg/kg-day.
`S=C1NCCN1` [4,5-Dihydro-2-mercaptoimidazole] yielded an NOAEL in data set [1] (developmental, development) of 5 mg/kg-day.
In turn, `CCOP(=S)(OCC)SCSCC` [Phorate] registered an NOAEL in data set [1] (acute) of 0.3 mg/kg-day.
Regarding `CC(C)(C)[C@@H](O)/C(=C\c1ccc(Cl)cc1Cl)n1cncn1` [Diniconazole-M], in data set [1] (reproduction developmental), the NOAEL was found to be 5 mg/kg-day.
Regarding `CC1(c2ccc(Oc3ccccc3)cc2)OC(=O)N(Nc2ccccc2)C1=O` (configuration not stated) [Famoxadone], the NOAEL in data set [2] came to 20 mg/kg-day.
`C1CC[CH]([Sn+]([CH]2CCCCC2)[CH]2CCCCC2)CC1.[OH-]` [Cyhexatin] came in with an NOAEL in data set [3] (reproduction developmental) of 2 mg/kg-day.
As to `COC(=O)N(OC)c1ccccc1COc1ccn(-c2ccc(Cl)cc2)n1` [Pyraclostrobin], the NOAEL in data set [3] (developmental, development) was found to be 3 mg/kg-day.
Turning to `O=C(O)COC(=O)c1cc(Oc2ccc(C(F)(F)F)cc2Cl)ccc1[N+](=O)[O-]`, the NOAEL in data set [4] (subchronic, duration: 1 months) is 60 mg/kg-day.
Turning to `CCNc1nc(Cl)nc(NCC)n1` [Simazine], the NOAEL in data set [1] (acute) amounted to 2.5 mg/kg-day.
On to `COC(=O)N(C(=O)N1CO[C@@]2(C(=O)OC)Cc3cc(Cl)ccc3C2=N1)c1ccc(OC(F)(F)F)cc1` [Indoxacarb], for which the NOAEL in data set [1] (acute) was found to be 12.5 mg/kg-day.
Take `CN/C(=N\[N+](=O)[O-])NCc1cnc(Cl)s1` [Clothianidin]: the NOAEL in data set [3] (reproduction developmental) and in data set [1] (reproduction developmental) was 10 mg/kg-day each time.
For the compound `C[n+]1ccc(-c2cc[n+](C)cc2)cc1` [Paraquat], in data set [4] (subchronic, duration: 90 days), the NOAEL was found to be 0.5 mg/kg-day.
`CCOP(=S)(OCC)SCSC(C)(C)C` [Terbufos] gave an NOAEL in data set [1] (acute) of 0.2 mg/kg-day.
`CC12CC1(C)C(=O)N(c1cc(Cl)cc(Cl)c1)C2=O` (configuration not stated) [Procymidone]: the NOAEL in data set [1] (developmental, development) came to 3.5 mg/kg-day.
For `CCCSP(=O)(OCC)Oc1ccc(Br)cc1Cl` (configuration not stated) [Profenofos], the NOAEL in data set [1] (acute) was found to be 100 mg/kg-day.
Turning to `O=C(Nc1ccccc1)Nc1cnns1` [Thidiazuron], the NOAEL in data set [3] (developmental, development) came to 25 mg/kg-day.
`ClC1C(Cl)C(Cl)C(Cl)C(Cl)C1Cl` (configuration not stated) [Lindane]: the NOAEL in data set [3] (developmental, development) came out at 5 mg/kg-day.
As for `[OH-].c1cc[c]([Sn+]([c]2ccccc2)[c]2ccccc2)cc1` [Triphenyltin hydroxide], the NOAEL in data set [3] (reproduction developmental) was 0.1 mg/kg-day.
As to `CCOP(=S)(OCC)SCCSCC` [Disulfoton], in data set [1] (acute), the NOAEL turned out to be 0.3 mg/kg-day.
On to `COc1cccc(C(=O)NN(C(=O)c2cc(C)cc(C)c2)C(C)(C)C)c1C` [Methoxyfenozide], for which the NOAEL in data set [4] (short-term, duration: 2 weeks) turned out to be 20 mg/kg-day.
`CC(Oc1ccc(Oc2ccc(Cl)cc2Cl)cc1)C(=O)O` (configuration not stated) [Diclofop] gave an NOAEL in data set [3] (reproduction developmental) of 3 mg/kg-day.
In the case of `CCOP(=O)(SC(C)CC)N1CCSC1=O` (configuration not stated) [Fosthiazate], the NOAEL in data set [4] (chronic, duration: 1 years) came to 0.5 mg/kg-day; in data set [4] (subchronic, duration: 90 days), 0.5 mg/kg-day.
As to `Cc1ccc(N=CN(C)C=Nc2ccc(C)cc2C)c(C)c1` [Amitraz], the NOAEL in data set [4] (chronic, duration: 2 years) came out at 1 mg/kg-day; in data set [4] (subchronic, duration: 90 days), 1 mg/kg-day.
In data set [3] (reproduction developmental), `CC(=O)[O][Sn]([c]1ccccc1)([c]1ccccc1)[c]1ccccc1` [Triphenyltin acetate] had an NOAEL of 0.1 mg/kg-day.
On to `COCC(=O)N(c1c(C)cccc1C)[C@H](C)C(=O)OC` [Metalaxyl-M], for which the NOAEL in data set [1] (developmental, development) is 50 mg/kg-day.
In data set [1] (repeat dose other), `N#Cc1c(Cl)c(Cl)c(Cl)c(C#N)c1Cl` [Chlorothalonil] showed an NOAEL of 60 mg/kg-day.
As for `CCOc1ccc2c(c1)C(C)=CC(C)(C)N2` [Ethoxyquin], the NOAEL in data set [4] (acute) stood at 50 mg/kg-day.
In the case of `CCOP(=S)(OCC)Oc1ccc([N+](=O)[O-])cc1` [Parathion], the NOAEL in data set [1] (acute) amounted to 0.5 mg/kg-day.
For `OC(c1ccc(Cl)cc1)(c1ccc(Cl)cc1)C(Cl)(Cl)Cl` [Dicofol], the NOAEL in data set [1] (acute) is 15 mg/kg-day.
In data set [1] (short-term, duration: 4 days), `COC[C@H](C)N(C(=O)CCl)c1c(C)csc1C` [Dimethenamid-P] yielded an NOAEL of 25 mg/kg-day.
Regarding `O=C(Nc1ccccc1)Nc1ccnc(Cl)c1` [Forchlorfenuron], in data set [3] (reproduction developmental), the NOAEL amounted to 100 mg/kg-day.
Compound `C=CC1(C)OC(=O)N(c2cc(Cl)cc(Cl)c2)C1=O` (configuration not stated) [Vinclozolin] returned an NOAEL in data set [1] (developmental, development) of 6 mg/kg-day.
In turn, `CCNc1nc(Cl)nc(NC(C)C)n1` [Atrazine] had an NOAEL in data set [1] (reproduction developmental) of 2.5 mg/kg-day.
In the case of `COC(=O)c1c(Cl)c(Cl)c(C(=O)OC)c(Cl)c1Cl` [Chlorthal-dimethyl], the NOAEL in data set [1] (subchronic, duration: 90 days) came out at 50 mg/kg-day.
For the compound `O=C(O)C1(C(=O)Nc2ccc(Cl)cc2Cl)CC1` [Cyclanilide], the NOAEL in data set [3] (reproduction developmental) is 3 mg/kg-day.
The same measure, in the same setting: as for `CC1=C(C)S(=O)(=O)CCS1(=O)=O` [Dimethipin], the figure is 20 mg/kg-day.
In turn, `CON(C)C(=O)Nc1ccc(Cl)c(Cl)c1` [Linuron] had an NOAEL in data set [3] (developmental, development) of 10 mg/kg-day.
The compound `c1nc[n]([Sn]([CH]2CCCCC2)([CH]2CCCCC2)[CH]2CCCCC2)n1` [Azocyclotin] registered an NOAEL in data set [3] (reproduction developmental) of 2 mg/kg-day.
Turning to `CS(=O)(=O)c1ccc(C(=O)C2C(=O)CCCC2=O)c(Cl)c1COCC(F)(F)F` [Tembotrione], the NOAEL in data set [3] (developmental, development) amounted to 1 mg/kg-day.
Turning to `Cc1cc(Cl)ccc1OCCCC(=O)O` [Thitrol], the NOAEL in data set [3] (developmental, development) worked out at 5 mg/kg-day.
In data set [3] (developmental, development), `CN1COCN(Cc2cnc(Cl)s2)/C1=N/[N+](=O)[O-]` [Thiamethoxam] returned an NOAEL of 50 mg/kg-day.
Take `CCOC(=O)CSc1nc(C(C)(C)C)nn1C(=O)N(C)C` [Triazamate]: the NOAEL in data set [4] (acute) stood at 1.5 mg/kg-day.
For the compound `CC(C)N(C(=O)CCl)c1ccccc1` [Propachlor], the NOAEL in data set [3] (developmental, development) was 58 mg/kg-day.
`CCN(CC)C(=O)SCc1ccc(Cl)cc1` [Thiobencarb] came in with an NOAEL in data set [1] (developmental, development) of 25 mg/kg-day.
